Data set [1] has as its target succinate cytochrome c reductase (SDH+CIII) (Homo sapiens, UniProt O14521+P21912+Q99643). Kind of data set: Malonate-sensitive succinate cytochrome c reductase (SCCR) activity, freeze-thawed HEK cells. It counts as biochemical. The settings on record: IC50 SCCR, no exogenous quinone, n ≥ 3. The arrangement: the pellets were permeabilized by two freeze-thaw cycles before enzyme assays; endogenous in cells; host or cells: HEK293, freeze-thawed cell pellets. How it is done: (§1) The cells were grown in T75 flasks using 10 ml Dulbecco’s modified Eagle's minimal essential medium (DMEM) either containing 1 or 4.5 g/l glucose, 4 mM glutamine (glutamax; Gibco Thermo Fisher Scientific, MA), 2 mM pyruvate and 200 μM uridine (permissive medium, thereafter referred as GlucoMax) or lacking glucose, pyruvate and uridine but containing 4 mM glutamine (nonpermissive medium, thereafter referred as MitoMax; S1 Table). All media were supplemented with 10% fetal calf serum and 100 U/mL each penicillin and streptomycin. HEK293 human embryonic kidney cells were cultured in DMEM containing 4.5 g/L glucose, 4 mM glutamine, 10% fetal calf serum, 200 μM uridine, 2 mM pyruvate, and 100 U/mL each penicillin and streptomycin [9]. Cell pellets (1,500 g for 5 min) were kept frozen (-80°C), and for biochemical studies, the pellets were permeabilized by two freeze-thaw cycles before enzyme assays.
(§2) RC enzyme activities were spectrophotometrically measured using a pseudo-double-wavelength spectrophotometer (Cary 60, Agilent). Malonate-sensitive succinate quinone dichlorophenolindophenol (DCPIP) reductase (SQDR), as an indicator of the activity of the isolated SDH enzyme (isolated CII), and glycerol-3-phosphate quinone DCPIP reductase (GQDR), as a measure of the activity of the isolated glycerol-3-phosphate dehydrogenase (G3PDH), were assayed as previously described. To study the effect of SDHIs on the RC, we had to take into consideration the fact that these inhibitors act through binding to quinone-binding sites in the RC. Accordingly, we observed that the extent of the inhibitory effects of these substances varies with the addition of exogenous quinones (Fig 1). […] With this aim, we measured the malonate-sensitive succinate cytochrome c reductase (SDH+CIII), glycerol-3-phosphate cytochrome c reductase (G3PDH+CIII) and antimycin-sensitive quinol cytochrome c reductase (CIII) as previously described.
(§3) The effects of eight different SDHIs (up to 500 μM; S2 Fig) were determined on four different biological materials. Because IC50 are known to be affected by the actual absolute activity of the tested enzyme, these IC50 were quantified using similar levels of SDH enzyme activity during the assay. IC50 values were determined using the AAT Bioquest IC50 calculator tool (https://www.aatbio.com/tools/ic50-calculator).

Data set [2] deals with T1, glycerol-3-phosphate cytochrome c reductase (G3PDH+CIII) (Homo sapiens, UniProt P00156).
T1 construct: the pellets were permeabilized by two freeze-thaw cycles before enzyme assays; endogenous in cells; host or cells: HEK293, freeze-thawed cell pellets
Kind of data set: Glycerol-3-phosphate cytochrome c reductase (GCCR) activity, freeze-thawed HEK cells. Type of data set: biochemical. The procedure:
as §1, §2, §3

For data set [3] the following is noted: according to European regulations; ref European regulations; cited from earlier work.
For data set [4], the target named is T2, quinol cytochrome c reductase (CIII) (Homo sapiens, UniProt P00156).
T2 construct: the pellets were permeabilized by two freeze-thaw cycles before enzyme assays; endogenous in cells; host or cells: HEK293, freeze-thawed cell pellets
The experiment in a line: Antimycin-sensitive quinol cytochrome c reductase (QCCR) activity, freeze-thawed HEK cells. It counts as biochemical. How it is done: as §1, §2, §3

As a reminder, the IC50 is the point on the concentration scale where inhibition reaches its midpoint.

succinate cytochrome c reductase (SDH+CIII), sequence (P21912 29-280): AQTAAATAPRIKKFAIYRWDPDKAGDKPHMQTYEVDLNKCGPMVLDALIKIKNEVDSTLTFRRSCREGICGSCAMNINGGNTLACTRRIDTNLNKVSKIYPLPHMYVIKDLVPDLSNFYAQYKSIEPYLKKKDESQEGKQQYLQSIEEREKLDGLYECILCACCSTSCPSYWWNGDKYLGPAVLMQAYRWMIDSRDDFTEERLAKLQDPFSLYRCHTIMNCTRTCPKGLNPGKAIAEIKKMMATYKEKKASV
succinate cytochrome c reductase (SDH+CIII), sequence (Q99643 30-169): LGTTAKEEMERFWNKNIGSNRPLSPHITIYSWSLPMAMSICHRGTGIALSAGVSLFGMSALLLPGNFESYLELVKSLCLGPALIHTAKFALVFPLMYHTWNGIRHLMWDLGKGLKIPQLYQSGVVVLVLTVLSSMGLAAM
succinate cytochrome c reductase (SDH+CIII), sequence (O14521 57-159): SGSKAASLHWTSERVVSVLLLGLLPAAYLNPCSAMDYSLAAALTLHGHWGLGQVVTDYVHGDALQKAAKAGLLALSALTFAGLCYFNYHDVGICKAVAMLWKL
succinate cytochrome c reductase (SDH+CIII), sequence (P31040 43-664 partner): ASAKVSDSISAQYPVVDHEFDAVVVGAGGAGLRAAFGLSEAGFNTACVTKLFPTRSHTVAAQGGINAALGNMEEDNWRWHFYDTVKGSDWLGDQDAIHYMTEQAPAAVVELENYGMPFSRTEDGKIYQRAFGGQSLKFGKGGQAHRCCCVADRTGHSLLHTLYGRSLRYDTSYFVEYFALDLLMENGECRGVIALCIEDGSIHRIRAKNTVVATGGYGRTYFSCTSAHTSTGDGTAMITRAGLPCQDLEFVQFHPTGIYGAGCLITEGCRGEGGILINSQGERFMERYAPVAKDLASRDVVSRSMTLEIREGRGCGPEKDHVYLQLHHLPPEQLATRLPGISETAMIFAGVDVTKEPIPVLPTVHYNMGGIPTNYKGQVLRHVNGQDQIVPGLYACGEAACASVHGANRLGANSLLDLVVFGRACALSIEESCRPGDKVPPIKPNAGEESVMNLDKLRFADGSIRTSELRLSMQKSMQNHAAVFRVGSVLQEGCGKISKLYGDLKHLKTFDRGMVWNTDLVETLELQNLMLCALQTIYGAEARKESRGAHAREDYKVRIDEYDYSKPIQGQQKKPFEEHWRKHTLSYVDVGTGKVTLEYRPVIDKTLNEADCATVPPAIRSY

In the case of `O=C(NCCc1ncc(C(F)(F)F)cc1Cl)c1ccccc1C(F)(F)F` [Fluopyram, fluopyram], the IC50 was 160 µM in data set [1], > 500 µM in data set [2] and > 500 µM in data set [4]. In addition, the “ADI (Acceptable Daily Intake)” value in data set [3] is 0.012 mg/kg/day.

These data come from article PMC6837341, “Evolutionarily conserved susceptibility of the mitochondrial respiratory chain to SDHI pesticides and its consequence on the impact of SDHIs on human cultured cells” (PLoS ONE, 2019).
